The source made the active and inactive calls. The rule behind the calls is not given here.
What was measured:
4T1 [1] = test: Anticancer activity against mouse 4T1 cells assessed as inhibition of cell growth incubated for 72 hrs by CCK-8 assay; format: functional, cell-based; details: 4T1, 72 h
4T1 [2] = test: Induction of apoptosis in mouse 4T1 cells assessed as apoptotic rate at 10 micromol/L incubated for 24 hrs by Annexin-V/PI staining based flow cytometry relative to control; format: functional; details: dose 10 µmol/L, at 10 µM
4T1 [3] = test: Induction of apoptosis in mouse 4T1 cells assessed as apoptotic rate at 40 micromol/L incubated for 24 hrs by Annexin-V/PI staining based flow cytometry relative to control; format: functional; details: dose 40 µmol/L, at 40 µM
4T1 [4] = test: Induction of cell cycle arrest in mouse 4T1 cells assessed as accumulation of cells in G0/G1 phase at 40 micromol/L incubated for 24 hrs by flow cytometry (reference value: 53.6%); format: functional; details: dose 40 µmol/L, at 40 µM
4T1 [5] = test: Inhibition of cell migration in mouse 4T1 cells assessed as reduction in wound healing incubated for 24 hrs by microscopic analysis; format: functional, cell-based
4T1 [6] = test: Inhibition of cell migration in mouse 4T1 cells assessed as expansion of wound area at 30 micromol/mL incubated for 24 hrs by microscopic analysis; format: functional, cell-based; details: dose 30.0 µmol/ml
4T1 [7] = test: Inhibition of cell invasion in mouse 4T1 cells at 30 micromol/mL incubated for 24 hrs by microscopic analysis; format: functional, cell-based; details: dose 30.0 µmol/ml
[8] = Half life in Sprague-Dawley rat plasma at 10 mg/kg, po measured upto 24 hrs by LC-MS/MS analysis; format: ADME, organism-based
[9] = Cmax in Sprague-Dawley rat plasma at 10 mg/kg, po measured upto 24 hrs by LC-MS/MS analysis; format: ADME, organism-based
[10] = AUC (0 to t) in Sprague-Dawley rat plasma at 10 mg/kg, po measured upto 24 hrs by LC-MS/MS analysis; format: ADME, organism-based
[11] = Oral bioavailability in Sprague-Dawley rat at 10 mg/kg measured upto 24 hrs by LC-MS/MS analysis; format: ADME, organism-based; details: in vivo
[12] = Toxicity in BALB/c mouse implanted with mouse 4T1 cells assessed as change in lung histopathology at 0.2 mmol/Kg, po administered once every day for 14 days; format: organism-based; details: in vivo, 336 h, time 14 day
[13] = Toxicity in BALB/c mouse implanted with mouse 4T1 cells assessed as increase in white blood cells at 0.2 mmol/Kg, po administered once every day for 14 days by routine blood analysis; format: organism-based; details: in vivo, 336 h, time 14 day
4T1 [14] = test: Antitumor activity against mouse 4T1 cells implanted in BALB/c mouse assessed as appearance of larger void areas in tumor at 0.2 mmol/Kg, po administered once daily for 14 days by histological staining based analysis; format: functional, organism-based; details: time 14.0 day
[15] = Toxicity in BALB/c mouse implanted with mouse 4T1 cells assessed as body weight loss at 0.2 mmol/Kg, po administered once daily for 14 days; format: organism-based; details: in vivo, 336 h, time 14 day
[16] = Toxicity in BALB/c mouse implanted with mouse 4T1 cells assessed as increase in lymphocytes at 0.2 mmol/Kg, po administered once every day for 14 days by routine blood analysis; format: organism-based; details: in vivo, 336 h, time 14 day
[17] = Toxicity in BALB/c mouse implanted with mouse 4T1 cells assessed as increase in neutrophil granulocytes at 0.2 mmol/Kg, po administered once every day for 14 days by routine blood analysis; format: organism-based; details: in vivo, 336 h, time 14 day
[18] = Toxicity in BALB/c mouse implanted with mouse 4T1 cells assessed as increase in monocytes at 0.2 mmol/Kg, po administered once every day for 14 days by routine blood analysis; format: organism-based; details: in vivo, 336 h, time 14 day
[19] = Toxicity in BALB/c mouse implanted with mouse 4T1 cells assessed as increase in AST level at 0.2 mmol/Kg, po administered once every day for 14 days by routine blood analysis; format: organism-based; details: in vivo, 336 h, time 14 day
[20] = Toxicity in BALB/c mouse implanted with mouse 4T1 cells assessed as increase in ALT level at 0.2 mmol/Kg, po administered once every day for 14 days by routine blood analysis; format: organism-based; details: in vivo, 336 h, time 14 day
[21] = Toxicity in BALB/c mouse implanted with mouse 4T1 cells assessed as effect on BUN level at 0.2 mmol/Kg, po administered once every day for 14 days by routine blood analysis; format: organism-based; details: in vivo, 336 h, time 14 day
[22] = Toxicity in BALB/c mouse implanted with mouse 4T1 cells assessed as effect on CREA level at 0.2 mmol/Kg, po administered once every day for 14 days by routine blood analysis; format: organism-based; details: in vivo, 336 h, time 14 day
[23] = Toxicity in BALB/c mouse implanted with mouse 4T1 cells assessed as reduction in spleen index at 0.2 mmol/Kg, po administered once every day for 14 days relative to control; format: organism-based; set-up: scale not given: the % may be the effect or the level left; details: in vivo, 336 h, at 0.2 mmol/kg, time 14 day
[24] = Toxicity in BALB/c mouse implanted with mouse 4T1 cells assessed as change in heart histopathology at 0.2 mmol/Kg, po administered once every day for 14 days; format: organism-based; details: in vivo, 336 h, time 14 day
[25] = Toxicity in BALB/c mouse implanted with mouse 4T1 cells assessed as change in liver histopathology at 0.2 mmol/Kg, po administered once every day for 14 days; format: organism-based; details: in vivo, 336 h, time 14 day
[26] = Toxicity in BALB/c mouse implanted with mouse 4T1 cells assessed as change in kidney histopathology at 0.2 mmol/Kg, po administered once every day for 14 days; format: organism-based; details: in vivo, 336 h, time 14 day
4T1 [27] = test: Induction of apoptosis in mouse 4T1 cells assessed as increase in Bax expression at 10 uM incubated for 24 hrs by Western blot analysis; format: functional, cell-based
4T1 [28] = test: Induction of apoptosis in mouse 4T1 cells assessed as decrease in Bcl2 expression at 10 uM incubated for 24 hrs by Western blot analysis; format: functional, cell-based
4T1 [29] = test: Induction of G0/G1 phase cell cycle arrest in mouse 4T1 cells assessed as decrease in S phase cells at 1.25 to 40 uM incubated for 24 hrs by flow cytometry; format: functional, cell-based; details: dose 1.25-40 µM
4T1 [30] = test: Induction of G0/G1 phase cell cycle arrest in mouse 4T1 cells assessed as decrease in G2/M phase cells at 1.25 to 40 uM incubated for 24 hrs by flow cytometry; format: functional, cell-based; details: dose 1.25-40 µM
[31] = Prodrug conversion in Sprague-Dawley rat plasma assessed as Stachydrine release at 10 mg/kg, iv measured after 24 hrs by LC-MS/MS analysis; format: ADME, organism-based; details: in vivo
[32] = Tmax in Sprague-Dawley rat plasma at 10 mg/kg, po measured upto 24 hrs by LC-MS/MS analysis; format: ADME, organism-based
[33] = Toxicity in BALB/c mouse implanted with mouse 4T1 cells assessed as increase in mean platelet volume at 0.2 mmol/Kg, po administered once every day for 14 days by routine blood analysis; format: organism-based; details: in vivo, 336 h, time 14 day
[34] = Toxicity in BALB/c mouse implanted with mouse 4T1 cells assessed as splenic edema at 0.2 mmol/Kg, po administered once every day for 14 days; format: organism-based; details: in vivo, 336 h, time 14 day
[35] = Toxicity in BALB/c mouse implanted with mouse 4T1 cells assessed as increase in splenic red pulp at 0.2 mmol/Kg, po administered once every day for 14 days; format: organism-based; details: in vivo, 336 h, time 14 day
[36] = Toxicity against BALB/c mouse implanted with mouse 4T1 cells assessed as animal death at 0.2 mmol/Kg, po administered once every day for 14 days; format: organism-based; details: in vivo, 336 h, time 14 day
[37] = Prodrug conversion in carboxylesterase (unknown origin) solution assessed as drug hydrolysis by measuring stachydrine release at 3 to 20 hrs; format: ADME, Homo sapiens; details: time 3-20 hrs
[38] = Prodrug conversion in serum (unknown origin) assessed as drug hydrolysis by measuring stachydrine release at 3 to 20 hrs; format: ADME, cell-free; details: time 3-20 hrs
4T1 [39] = test: Antitumor activity against mouse 4T1 cells implanted in BALB/c mouse assessed as tumor cell necrosis at 0.2 mmol/Kg, po administered once every day for 14 days by histological staining based analysis; format: functional, organism-based; details: time 14.0 day

`CCCCCCCCCCCCOC(=O)C1CCC[N+]1(C)C.[Cl-]` (centres undefined) showed an IC50 (4T1 [1]) of 8.35 µM, an Activity (4T1 [2]) of 59% and an Activity (4T1 [3]) of 71.3%. The Activity (4T1 [4]) was 64.5%, the inhibition (4T1 [5]) was “Dose-Dependent Effect” and the inhibition (4T1 [6]) was “Active”. The inhibition (4T1 [7]) was “Active”, the half-life [8] was 7.62 h and the Cmax [9] was 6100 ng/mL. For the same molecule, the AUC(0-t) at 24 h [10] was 14800 ng·h/mL, the bioavailability [11] was 79.6% and the Activity [12] was “Non-Toxic”. For the same molecule, the Activity [13] was “Non-Toxic”, the Activity (4T1 [14]) was “Active” and the Activity [15] was “Toxic”. The Activity [16] was “Non-Toxic”, the Activity [17] was “Non-Toxic” and the Activity [18] was “Non-Toxic”. The Activity [19] was “Toxic”, the Activity [20] was “Toxic” and the Activity [21] was “Non-Toxic”. The Activity [22] was “Non-Toxic”, the Activity [23] was 60% and the Activity [24] was “Non-Toxic”. For the same molecule, the Activity [25] was “Non-Toxic”, the Activity [26] was “Non-Toxic” and the Activity (4T1 [27]) was “Active”. For the same molecule, the Activity (4T1 [28]) was “Active”, the Activity (4T1 [29]) was “Active” and the Activity (4T1 [30]) was “Active”. The Drug metabolism [31] was “Metabolite_Detected”, the Tmax [32] was 2 h and the Activity [33] was “Non-Toxic”. The Activity [34] was “Toxic”, the Activity [35] was “Toxic” and the Activity [36] was “Non-Toxic”. The Drug metabolism [37] was “Metabolite_Detected”, the Drug metabolism [38] was “Metabolite_Detected” and the Activity (4T1 [39]) was “Active”.

— ChEMBL document CHEMBL5625202, “Synthesis, characterization and anti-breast cancer activities of stachydrine derivatives” (Eur J Med Chem, 2023)
